Literature values in patent EP1096056A1, “Wrinkle resistant composition” (THE PROCTER & GAMBLE COMPANY, priority 1999, dated 2001).
Structures can show the parent of a compound that is named as a salt.

Columns and labels:
[1] = in water

Row | Compound | water solubility [1] | stability over a wide pH range
1 | [Na+].[O-][n+]1ccccc1[S-] [sodium pyrithione] | about 50% | –
2 | Cn1sc2c(c1=O)CCC2 [Promexal, 2-methyl-4,5-trimethylene-4-isothiazolin-3-one] | – | 4-12
3 | O=c1[nH]sc2ccccc12 [Proxel, 1,2-benzisothiazolin-3-one] | – | 4-12
4 | [H]/N=C(\N/C(=N/[H])NCCCCCCNC(=N)NC(=N)Nc1ccc(Cl)cc1)Nc1ccc(Cl)cc1 [diacetate salt, 1,1'-hexamethylene bis(5-(p-chlorophenyl)biguanide)] | about 1.8% | –
5 | [H]/N=C(\N/C(=N/[H])NCCCCCCNC(=N)NC(=N)Nc1ccc(Cl)cc1)Nc1ccc(Cl)cc1 [digluconate salt, 1,1'-hexamethylene bis(5-(p-chlorophenyl)biguanide)] | about 70% | –
